In patent publication US20210077501A1, “COMPOSITIONS FOR PREVENTING OR TREATING UVEITIS” (Chong Kun Dang Pharmaceutical Corp., priority 2018, published 2021):

Assays:
reactive T cells = experiment: Treg suppression assay: proliferation of reactive T cells (eFluor670 dilution, flow cytometry); assay type: cell-based, mouse; conditions: Teff:Treg 2:1, three days; concentration not specified
Experimental: To identify the efficacy of the inventive compounds on suppressing the proliferation of reactive T cells in immune responses, compounds 255, 280, 374, 416 and 476 according to the present invention were cultured together with reactive T cells and regulatory T cells […], and then the suppressive efficacy of regulatory T cells was measured.
Specifically, a six-week old C57BL6 male mice were supplied from Central Lab Animal Inc., then acclimated for one week, and then used in an experiment. A spleen was isolated from the mouse, and then treated with collagenase D (Roche, 11088866001), such that splenocytes were isolated therefrom. […] were isolated by means of a CD4+CD25+ regulatory T cell isolation kit (Miltenyi Biotec, 130-091-041) according to a protocol provided by a manufacturer. Teff cells were cultured at 37° C. for ten minutes by means of eFluor®670 (Cell proliferation Dye eFluor®670, eBioscience), such that cell membranes were stained. Teff and Treg were divided into a 96 well plate at a ratio of 2:1, and then T cells were activated for three days by means of an anti-CD3E and anti-CD28 mAb magnetic bead (T cell activation/expansion kit, Miltenyi Biotec, 130-093627), such that Treg suppression assay was performed. A test drug was simultaneously treated for three days, during which the assay was performed. The divided amount of eFluor®670 labeled on the Teff cell membranes was measured, such that a degree of proliferation of T cells was evaluated accordingly. An eFluor®670-dilution plot was measured by means of a flow cytometer (FACS LSR Fortessa, BD bioscience). The suppressive ability on T cells proliferation was calculated by means of a following equation.

[1] = test system: CTLA4 (cytotoxic T-lymphocyte-associated protein 4) in the regulatory T cells; experiment: CTLA4 expression in regulatory T cells (iTreg) by flow cytometry; assay type: cell-based, mouse; conditions: for level of CTLA4 expression in the T cells (function of regulatory T cells): iTreg, six days treatment, concentration not specified
Experimental: To identify if the compounds according to the present invention regulate a function of regulatory T cells in immune responses, compounds 255, 280, 374, 416 and 476 were treated, and then an expression level of an immune checkpoint receptor CTLA4 (cytotoxic T-lymphocyte-associated protein 4) in the regulatory T cells was measured by means of flow cytometry.
Specifically, a six-week old C57BL6 male mice were supplied from Central Lab Animal Inc., then acclimated for one week, and then used in an experiment. A spleen was isolated from the mouse, and then treated with collagenase D (Roche, 11088866001), such that splenocytes were isolated therefrom. CD4+CD25-T cells were isolated by means of a CD4+CD25+ regulatory T cell isolation kit (Miltenyi Biotec, 130-091-041), and then CD4+CD25-T cells (at a ratio of 5×10^5 cells/well) were treated with an anti-CD3E/anti-CD28 mAb bead (T cell activation/expansion kit, Miltenyi Biotec, 130-093627) and a mouse recombinant TGF-β2 for six days, such that they were differentiated into iTreg. A test drug was simultaneously treated for six days, during which the cells were differentiated into iTreg. After that, the cells were incubated by means of anti-CD4/anti-CD25 mAb (eBioscience, 25-0042-82, 17-0251-82) at 4° C. for 20 minutes, and then labeling was performed. For intracytoplasmic staining, permeabilization was performed by means of Fix/permeabilization buffer (eBioscience, 00-5523-00), then labeling was performed by means of anti-FOXP3-Alexafluor488 (eBioscience, 53-5773-82) and anti-CTLA4-PE (eBioscience, 12-1522-82), and then flow cytometry was performed by means of FACS LSR Fortessa (BD bioscience).

[2] = test system: experimental autoimmune uveitis (EAU) mouse; experiment: Immunofluorescent staining of immunomarkers in the retina of the EAU mouse; assay type: in vivo
[3] = test system: experimental autoimmune uveitis (EAU) mouse; experiment: Clinical grading of uveitis in the EAU mouse (fundoscopy); assay type: in vivo
[4] = test system: TNFα secretion in LPS-stimulated human monocyte cell lines (THP-1); experiment: Suppression of TNFα secretion in LPS-stimulated THP-1 cells (ELISA); assay type: cell-based
Experimental: To identify the efficacy of the inventive compounds on suppressing a TNFα secretion in immune responses, suppression of TNFα production, which was achieved by a treatment with compounds 374, 461, 500, 530 and 532 according to the present invention in LPS-stimulated human monocyte cell lines (THP-1), was quantified by means of an enzyme immuno-assay (ELISA).
Specifically, the THP-1 cell lines (ATCC) were cultured in an RPMI-1640 medium comprising 10% FBS. The cell lines were divided into a 24 well plate at a ratio of 1×10^5 cells per well, then treated with 100 ng/mL PMA (phorbol 12-myristate 13-acetate) for 24 hours, and then differentiated into macrophage. Then, the culture medium was replaced with a new one, then treated with a test drug for 24 hours, and then treated again with 10 ng/mL LPS (E.Coli, O55:B5) for four hours for stimulation. After that, supernatant was taken and used to measure the amount of TNFα secreted from the cells by means of a Human TNFα Instant ELISA kit (eBioscience, BMS223INST) according to a protocol provided by a manufacturer.

[5] = test system: experimental autoimmune uveitis (EAU) mouse; experiment: ELISA of IFN-γ and IL-17A from spleen mononuclear cells of the EAU mouse; assay type: in vivo
[6] = test system: experimental autoimmune uveitis (EAU) mouse; experiment: H&E staining of histopathological lesions in the retina of the EAU mouse; assay type: in vivo; conditions: 0.3% eye drop twice a day, Day 21
[7] = test system: experimental autoimmune uveitis (EAU) mouse; experiment: FACS of immune cells in retina and draining lymph node of the EAU mouse; assay type: in vivo
[8] = test system: experimental autoimmune uveitis (EAU) mouse; experiment: Real-time PCR of HDAC6 and inflammatory cytokines in the retina of the EAU mouse; assay type: in vivo; conditions: for expression level of HDAC6 / expression level of IL-1β / expression level of IL-17 / expression level of INF-γ / expression level of TNF-α: retina
[9] = EAU mouse, eye drop administration group
[10] = THP-1, LPS, at both 100 nM and 300 nM
[11] = in comparison with LPS-induced control group, THP-1, concentration not specified
[12] = spleen MNC stimulated with IRBP peptide 72 hours, eye drop administration group
[13] = lymph node tissues, eye drop administration group
[14] = lymph nodes, i.p. administration group
[15] = retina tissues, eye drop administration group
[16] = i.p. administration group (10 or 30 mg/kg once a day)
[17] = THP-1, LPS, on increasing concentration of compound treatment from 100 nM to 300 nM

Compound: O=C(NO)c1ccc(CN(C(=O)N2CCOCC2)c2cccc(Br)c2)cc1 [Compound 255, N-(3-bromophenyl)-N-(4-(hydroxycarbamoyl)benzyl)morpholine-4-carboxamide]
- proliferation of the reactive T cells (reactive T cells): excellent effect
- level of CTLA4 expression in the T cells (function of regulatory T cells) [1]: excellent effect
- cytotoxicity ([1]; treated at 1000 nM, data analysis not performed): severe cytotoxicity

Compound: O=C(NO)c1ccc(CN(C(=O)N2CCOCC2)c2ccccn2)cc1 [Compound 280, N-(4-(hydroxycarbamoyl)benzyl)-N-(pyridine-2-yl)morpholine-4-carboxamide]
- proliferation of the reactive T cells (reactive T cells): excellent effect
- level of CTLA4 expression in the T cells (function of regulatory T cells) [1]: excellent effect

Compound: O=C(NO)c1ccc(CN(C(=O)N2CCOCC2)c2cccc(C(F)(F)F)c2)cc1 [Compound 374, N-(4-(hydroxycarbamoyl)benzyl)-N-(3-(trifluoromethyl)phenyl)morpholine-4-carboxamide]
- proliferation of the reactive T cells (reactive T cells): excellent effect
- B220 (B cell marker) in retina [2, 9]: did not show an obvious change
- CD3(+) cell (T cell marker) in retina [2, 9]: significantly decreased to a similar level to that of a normal mouse
- infiltration of CD4(+) immune cells into a retina tissue [2, 9]: clearly decreased and remained only under the retina
- inhibiting an infiltration of inflammatory cells ([2]; animal model for an induced uveitis disease, summary (FIGS. 7 to 10)): excellent effect
- clinical grade of uveitis ([3]; EAU mouse, 0.3% eye drop twice a day from Day 11, Day 21, scale Grade 0-4): ≤ 0.5 Grade
- decreasing a uveitis lesion ([3]; animal model for an induced uveitis disease, summary (FIGS. 4 to 6)): excellent effect
- level of TNFα secretion [4, 10]: remarkably decreased down to a level at which no inflammatory response was induced by means of the LPS
- level of TNFα secretion [4, 11]: excellent effect
- inhibiting an expression of inflammatory cytokines in a spleen ([5]; animal model for an induced uveitis disease, summary (FIG. 11)): excellent effect
- level of IL-17A [5, 12]: significantly decreased
- level of INF-γ [5, 12]: significantly decreased
- inflammatory lesions in retina tissues (H&E) [6]: significantly decreased
- decreasing the number of immune cells in a retina and a lymph node ([7]; animal model for an induced uveitis disease, summary (FIGS. 13 to 21)): excellent effect
- number of IL-IP(+) cells [7, 13]: significantly decreased
- number of INF-γ(+)/CD4(+) cells [7, 13]: significantly decreased
- number of INF-γ(+)/CD4(+) cells ([7]; lymph node tissues, i.p. administration group): significantly decreased
- number of CD11b(+) cells [7, 14]: decreased
- number of CD19(+) cells [7, 14]: decreased
- number of F4/80(+) cells [7, 14]: decreased
- number of IL-IP(+) cells [7, 15]: significantly decreased
- number of INF-γ(+)/CD4(+) cells [7, 15]: significantly decreased
- number of INF-γ(+)/CD4(+) cells ([7]; retina tissues, i.p. administration group, 10 mg/kg): significantly decreased
- number of INF-γ(+)/CD4(+) cells ([7]; retina tissues, i.p. administration group, 30 mg/kg): significantly decreased
- inhibiting an expression of inflammatory cytokines in inflammation regions ([8]; animal model for an induced uveitis disease, summary (FIG. 12)): excellent effect
- expression level of HDAC6 ([8]; eye drop administration group): significantly decreased and recovered to the level of the normal mouse
- expression level of IL-1β ([8]; eye drop administration group): significantly decreased and recovered to the level of the normal mouse
- expression level of IL-17 ([8]; eye drop administration group): significantly decreased and recovered to the level of the normal mouse
- expression level of INF-γ ([8]; eye drop administration group): significantly decreased and recovered to the level of the normal mouse
- expression level of TNF-α ([8]; eye drop administration group): significantly decreased and recovered to the level of the normal mouse
- expression level of HDAC6 [8, 16]: significantly decreased and recovered to the level of the normal mouse
- expression level of IL-1β [8, 16]: significantly decreased and recovered to the level of the normal mouse
- expression level of IL-17 [8, 16]: significantly decreased and recovered to the level of the normal mouse
- expression level of INF-γ [8, 16]: significantly decreased and recovered to the level of the normal mouse
- expression level of TNF-α [8, 16]: significantly decreased and recovered to the level of the normal mouse
- level of CTLA4 expression in the T cells (function of regulatory T cells) [1]: excellent effect

Compound: CN1CCN(C(=O)N(Cc2ccc(C(=O)NO)cc2)c2ccc(F)cc2F)CC1 [Compound 416, N-(2,4-difluorophenyl)-N-(4-(hydroxycarbamoyl)benzyl)-4-methylpiperazine-1-carboxamide]
- proliferation of the reactive T cells (reactive T cells): excellent effect
- level of CTLA4 expression in the T cells (function of regulatory T cells) [1]: excellent effect

Compound: CCN1CCN(C(=O)N(Cc2ccc(C(=O)NO)cc2)c2cccc(C(F)(F)F)c2)CC1 [Compound 461, 4-ethyl-N-(4-(hydroxycarbamoyl)benzyl)-N-(3-(trifluoromethyl)phenyl)piperazine-1-carboxamide]
- level of TNFα secretion [4, 10]: remarkably decreased down to a level at which no inflammatory response was induced by means of the LPS
- level of TNFα secretion [4, 11]: excellent effect

Compound: O=C(NO)c1ccc(CN(C(=O)N2CC(F)(F)C2)c2cccc(C(F)(F)F)c2)cc1 [Compound 476, 3,3-difluoro-N-(4-(hydroxycarbamoyl)benzyl)-N-(3-(trifluoromethyl)phenyl)azetidine-1-carboxamide]
- proliferation of the reactive T cells (reactive T cells): excellent effect
- level of CTLA4 expression in the T cells (function of regulatory T cells) [1]: excellent effect

Compound: O=C(NO)c1ccc(CN(C(=O)N2CCOCC2)c2cccc(CF)c2)cc1 [Compound 500, N-(3-(fluoromethyl)phenyl)-N-(4-(hydroxycarbamoyl)benzyl)morpholine-4-carboxamide]
- level of TNFα secretion [4, 10]: remarkably decreased down to a level at which no inflammatory response was induced by means of the LPS
- level of TNFα secretion [4, 11]: excellent effect

Compound: O=C(NO)c1ccc(CN(C(=O)N2CCOCC2)c2cccc(F)c2)cc1 [Compound 530, N-(3-fluorophenyl)-N-(4-(hydroxycarbamoyl)benzyl)morpholine-4-carboxamide]
- level of TNFα secretion [4, 17]: drastically decreased
- level of TNFα secretion [4, 11]: excellent effect

Compound: O=C(NO)c1ccc(CN(C(=O)N2CCOCC2)c2cccc(C(F)(F)F)c2)c(F)c1 [Compound 532, N-(2-fluoro-4-(hydroxycarbamoyl)benzyl)-N-(3-(trifluoromethyl)phenyl)morpholine-4-carboxamide]
- level of TNFα secretion [4, 17]: drastically decreased
- level of TNFα secretion [4, 11]: excellent effect
